Data from patent publication US20050095280A1, “Single-component pH-sensitive liposomes of reduced solid-to-liquid phase transition temperatures” (Michalakis Savva, priority 2003, published 2005).

Tested on: B16F0 melanoma cells
Experiment: Transfection activity in B16F0 melanoma cells
Type: cell-based
Settings: in the absence of helper lipid DOPE
From the text: FIG. 2 Transfection activity of 1,3lb3 and other commercially available cationic lipids in B16F0 melanoma cells. Lif/d stands for Lipofectamine/DOPE. The data are the average of six wells two independent experiments (n=3×2).
FIG. 3 Transfection activity of 1,3lb3 (in the absence of DOPE) -a dipalmitoyl analogue with fluid lamellar phases at physiological pH and temperature-against B16F0 tumor melanoma cells. The plasmid DNA consisted of an EGFP reporter gene driven by the SV40 early promoter, cloned into a pUC21 vector (CloneTech Labs).
FIG. 8 Transfection activity as tested by X-gal of cationic lipids against B16F0 melanoma cells in the absence of serum. The (+/−) ratio is fixed to 2. A. lb1 B. lb2 C. lb3 D. lb4 E. lb5

CCCCCCCCCCCCCCCC(=O)NCC(CNC(=O)CCCCCCCCCCCCCCC)OC(=O)N(CCN(C)C)CCN(C)C [13lb3, N,N′-dihexadecanoyl-1,3-diaminopropyl-2-carbamoyl-[bis-(2-dimethylaminoethane)]]
Transfection activity: efficient transfection activity
